One compound from ChEMBL document CHEMBL5321222, “N(14)-substituted evodiamine derivatives as dual topoisomerase 1/tubulin-Inhibiting anti-gastrointestinal tumor agents” (Eur J Med Chem, 2023) can be followed below.

For test [1], the system named is RKO. The experiment in a line: Inhibition of colony formation in human RKO cells at 90 nM incubated for 7 days by crystal violet staining based assay. The conditions noted are these: time 7.0 day. In kind it is functional, cell-based.
In test [2] the test system is MGC-803. In words: Induction of morphological changes in human MGC-803 cells assessed as formation of apoptotic bodies at 0.05 to 0.2 uM incubated for 24 hrs by Giemsa staining based micrscopic analysis. In kind it is functional, cell-based. The conditions noted are these: dose 0.05-0.2 µM.
The test system of test [3] is MGC-803. In words: Induction of apoptosis in human MGC-803 cells assessed as early apoptotic cells at 0.05 uM incubated for 24 hrs by propidium iodide and Annexin V/FITC staining based flow cytometry assay (reference value: 1.85%). The format is functional.
The next test deals with HGC-27. In words: Antiproliferative activity against human HGC-27 cells assessed as reduction in cell viability incubated for 72 hrs by MTT assay. In kind it is functional, cell-based. As to conditions: HGC-27, 72 h.
Test [4] has as its system RKO. The experiment in a line: Induction of morphological changes in human RKO cells assessed as cell deformation at 0.05 to 0.2 uM incubated for 24 hrs by Giemsa staining based micrscopic analysis. The format is functional. The conditions noted are these: dose 0.05-0.2 µM.
The test system of test [5] is RKO. The experiment in a line: Induction of apoptosis in human RKO cells assessed as early apoptotic cells at 0.1 uM incubated for 24 hrs by propidium iodide and Annexin V/FITC staining based flow cytometry assay (reference value: 0.16%). In kind it is functional.
The subject of test [6] is RKO. In words: Induction of apoptosis in human RKO cells assessed as late apoptotic cells at 0.05 uM incubated for 24 hrs by propidium iodide and Annexin V/FITC staining based flow cytometry assay (reference value: 0.50%). In kind it is functional.
The subject of test [7] is MGC-803. The experiment in a line: Induction of apoptosis in human MGC-803 cells assessed as late apoptotic cells at 0.05 uM incubated for 24 hrs by propidium iodide and Annexin V/FITC staining based flow cytometry assay (reference value: 4.10%). The format is functional.
In another test the test system is GES1. The experiment in a line: Antiproliferative activity against human GES1 cells assessed as reduction in cell viability incubated for 72 hrs by MTT assay. The format is functional, cell-based. The conditions noted are these: GES1, 72 h.
In test [8] the test system is MGC-803. In words: Inhibition of colony formation in human MGC-803 cells at 90 nM incubated for 7 days by crystal violet staining based assay. The format is functional, cell-based. The conditions noted are these: time 7.0 day.
Test [9] concerns the target T1, Tubulin (Homo sapiens) (UniProt P68371+Q9H4B7+P0DPH7+P68366+Q13509+Q71U36+P04350+Q3ZCM7+P07437+P68363+Q9BQE3+Q6PEY2+Q13885+Q9BVA1+Q9BUF5). In words: Induction of microtubule disruption in human MGC-803 cells assessed as atrophied nucleus at 50 to 200 nM incubated for 24 hrs by laser confocal microscopic analysis. In kind it is cell-based. As to conditions: dose 50-200 nM.

The next test has as its system SGC-7901. In words: Antiproliferative activity against human SGC-7901 cells assessed as reduction in cell viability incubated for 72 hrs by MTT assay. In kind it is functional, cell-based. The conditions noted are these: SGC-7901, 72 h.
The target of test [10] is T1, Tubulin (Homo sapiens). The experiment in a line: (§1) Inhibition of tubulin polymerization (unknown origin) measured every minute. In kind it is protein-complex assay.
A further test deals with Tubulin. The description is as §1. In kind it is protein-complex assay, Homo sapiens.
The test system of test [11] is MGC-803. In words: Inhibition of cell migration in human MGC-803 cells assessed as reduction in tumor wound healing incubated for 24 hrs by microscopic analysis. The format is functional, cell-based. As to conditions: dose 10-90 nM.
Test [12] concerns MGC-803. In words: Antiproliferative activity against human MGC-803 cells assessed as reduction in cell viability incubated for 72 hrs by MTT assay. The conditions noted are these: MGC-803, 72 h. The format is functional, cell-based.
Test [13] has as its system RKO. In words: Inhibition of colony formation in human RKO cells incubated for 7 days by crystal violet staining based assay. In kind it is functional, cell-based. As to conditions: dose 10-90 nM, time 7.0 day.
The test system of test [14] is MGC-803. The experiment in a line: Inhibition of cell […] in human MGC-803 cells incubated for 24 hrs by scratch wound healing assay. The conditions noted are these: dose 12.5-50 nM. In kind it is functional, cell-based.

Each structure is given as a SMILES string. The source made the active and inactive calls. The calls are words filed in the database; no cut-off is given here.

In the case of `CCCN1c2ccccc2C(=O)N2CCc3c([nH]c4ccccc34)C21` (stereo not drawn), the inhibition result in the test with RKO [1] and with MGC-803 [8] was “Active” each time. Moreover, the outcome with MGC-803 [2], in the test with RKO [4] and at Tubulin (Homo sapiens) [9] was Active. Besides, the Activity was determined as 3.03% in the test on MGC-803 [3], 14.52% in the test with RKO [5], 21.45% in the test on RKO [6] and 6.84% in the test on MGC-803 [7]. In addition, the IC50 amounted to 810 nM with HGC-27; 130 nM with GES1; 90 nM in the test on SGC-7901; 5690 nM against Tubulin; 90 nM in the test with MGC-803 [12]. Moreover, the inhibition entry on Tubulin (Homo sapiens) [10], in the test on MGC-803 [11], in the test with RKO [13] and in the test on MGC-803 [14] was “Dose-Dependent Effect” in each case.
